Reference: US20240148728A1, “NOVEL METHOD TO BLOCK IN[…] DEATH AND IL-1BETA SECRETION CAUSED BY […] UV I[…] GENETIC AND CHEMICAL INHIBITORS OF ZAKA AND THE NLRP1 INFLAMMASOME” (priority 2021, published 2024)
Entries after “also recorded” stand apart in the source; their conditions may differ.

How the values were obtained:
ZAKα = ZAKα (Homo sapiens, UniProt Q9NYL2); conditions: cited from earlier work
NLRP1^DR = assay: NLRP1 PYD-DR1 / NLRP1^DR phosphorylation (GFP fusion, immunoblot, PhosTag SDS-PAGE) in N-TERT cells; assay type: cell-based, human; conditions: NLRP1 KO N-TERT cells expressing GFP-tagged NLRP1^DR; various kinase inhibitors
Source text: (§1) The following antibodies were used in this study: cleaved PARP1 (Abclonal, #WH162766), Cleaved CASP3 (Abclonal, #WH154646), Full length GSDMD-FL (Abcam, #ab210070), IL1β p17 specific (CST, #83186S), CARD8 (Abcam, CARD8-NT: ab19485, CARD8-CT: ab241186), DPP9 (Abcam, ab226334), c-Myc (Santa Cruz Biotechnology, #sc-40), HA tag (Santa Cruz Biotechnology, #sc-805), GAPDH (Santa Cruz Biotechnology, #sc-47724), ASC (Adipogen, #AL-177), CASP1 (Santa Cruz Biotechnology, #sc-622), 11_1B (R&D systems, #AF-201), FLAG (SigmaAldrich, #F3165), NLRP1 (R&D systems, #AF6788), IL18 (Abcam ab207324), cleaved GSDMD-NT (Asp275) (Cell Signaling Technology, #36425), RPL31 (Abclonal, #WH162766), CASP7 (Abcam, ab255818), CASP8 (Abcam, ab32397), cleaved CASP3 (Cell Signaling Technology, #9664). All horseradish peroxidase (HRP)— conjugated secondary antibodies were purchased from Jackson Immunoresearch (goat anti-mouse IgG: 115-035-166; goat anti-rabbit IgG: 111-035-144; and donkey anti-goat IgG: 705-005-147). Blue-Native PAGE was carried out using the Native-PAGE system (ThermoFisher) with 10-20 μg of total lysate. For SDS-PAGE using whole cell lysates, cells were resuspended in tris-buffered saline 1% NP-40 with protease inhibitors (Thermo Scientific, #78430). Protein concentration was determined using the Bradford assay (Thermo Scientific, #23200) and […] of protein loaded, a part from cleaved GSDMD-NT visualisation where […] of protein was used. All primary antibodies were used at 250 ng/ml. Visualisation of ASC oligomerization was previously described (Robinson et al., 2020). For analysis of IL1β and IL-18 cleavage in the media by immunoblotting, samples were concentrated using filtered centrifugation (Merck, Amicon Ultra, #UFC5003BIK). Protein samples were run using immunoblotting, and then visualized using a ChemiDoc Imaging system (Bio-Rad). PhosTag SDS-PAGE was carried out using homemade 10% SDS-PAGE gel, with addition of Phos-tag Acrylamide (Wako Chemicals, AAL-107) to a final concentration of 30 μM and manganese chloride(II) (Sigma-Aldrich, #63535) to 60 μM.
Cells were directly harvested using Laemmli buffer, lysed with an ultrasonicator, and loaded into the Phos-tag gel to run. Once the run was completed, the polyacrylamide gel was washed in transfer buffer with 10 mM EDTA twice, subsequently washed without EDTA twice, blotted onto 0.45 μm PVDF membranes (Bio-rad), blocked with 3% milk, and incubated with primary and corresponding secondary antibodies.

human skin explants = assay: UVB-induced IL1β in human skin explants; conditions: UVB 100 or 250 mJ/cm^2, harvest 24 hours later
Source text: Waste surgical skin tissues from abdomen and breast were collected with appropriate informed consent of the patients and sent to the Asian Skin Biobank (ASB worldwidewebdota-stardotedudotsg/sris/technology-platforms/asian-skin-biobank) at the Skin Research Institute of Singapore (SRIS) (under A*STAR IRB 2020-209). Fresh skin tissue was cleaned in solutions of HBSS with decreasing concentrations of Penicillin, Streptomycin and Fungizone. Then 8-mm skin biopsies were punched and submerged in culture media. Skin explants were immediately irradiated with UVB or treated with VbP.
For UVA and UVB irradiation experiments, cells were seeded 24 hours prior to irradiation, and washed once in phosphate buffered saline pH 7.4 before being exposed to indicated dose of irradiation using a BIO-SUN microprocessor controlled, cooled UV irradiation system (BIO-SUN, Vilber). After exposure, PBS was replaced by keratinocyte medium and cells were incubated for indicated time.
To measure secreted cytokine and chemokine levels a human IL1β enzyme linked immunosorbent assay (ELISA) kit (BD, #557953), human IL-18 ELISA kit (MBL, #7620) or an Immune Monitoring 65-Plex Human ProcartaPlex Panel (EPX650-10065-901) were used according to manufacturer's protocols. […]

3D organotypic skin = assay: Secreted cytokines/chemokines from 3D organotypic skin (ELISA, Luminex); assay type: cell-based, human
Description: Organotypic cultures were generated by adapting a previously described protocol (Arnette et al., 2016). Briefly, 2 ml of collagen I (4 mg/ml; Corning, #354249) mixed with 7.5×10^5 human fibroblasts were allowed to polymerize over 1-m1 acellular collagen I in 6-well culture inserts (Falcon, #353102) placed in 6-well deep well plate (Falcon, #355467). After 24 hours, 1×10^6 primary human keratinocytes were seeded into the inserts and kept submerged in a 3:1 DMEM (Hyclone, #SH30243.01) and F12 (Gibco, #31765035) mixture with 10% FBS (Hyclone, #SV30160.03), 100 U/ml penicillin-streptomycin (Gibco, #15140122), 10 μM Y-27632 (Tocris, #1254), 10 ng/ml EGF (Sigma-Aldrich, #E9644), 1×10^−10 M cholera toxin (Enzo, #BML-G117-001), 0.4 μg/ml hydrocortisone (Sigma-Aldrich, #H0888), 0.0243 mg/ml adenine (Sigma-Aldrich, #A2786), 5 μg/ml insulin (Sigma-Aldrich, #12643), 5 μg/ml transferrin (Sigma-Aldrich, #T2036) and 2×10^−9 M 3,3′,5′-triiodo-L-thyronine (Sigma-Aldrich, #T6397). After another 24 hours, the organotypic cultures were then raised at the air-liquid interface and fed with the submerged media (without Y-27632 and EGF) below the insert to induce epidermal differentiation. The air-lifting medium was replaced every 2 days and treatments began 10-14 days after airlifting. Organotypic cultures were then harvested 24 hours after treatment and formalin fixed for 24 hours. […]

[1] = system: immortalized keratinocytes (N-TERT); assay: Pyroptosis / apoptosis in N-TERT keratinocytes (morphology, ASC-GFP, PI, Annexin V, immunoblot); assay type: cell-based, human; conditions: for mode of cell death (apoptosis / pyroptosis): Annexin V staining and PI inclusion, immunoblot markers
Source text: as §1
N-TERT-ASC-GFP cells were seeded at a cell density of 3000 cells/well of a 96 black well plate (PerkinElmer, CellCarrier-96 Ultra, #6055300). The next morning cells were treated with chemicals for 6 h or treated in the evening for 24 h before staining. 1 hour before observing the cells on the microscope the cells were stained with 1 μg/ml dilution of propidium iodide (PI, Abcam #ab14083), 10 ng/ml dilution of Hoechst 33342 (Life Technologies, #H21492) or stained with Annexin V Alexa Flour 647 (Life technologies, #A23204) according to the manufacturer's protocol. Stained cells were then imaged on a high content screening microscope (Perkin Elmer Operetta CLS imaging system). Images were then stored and analyzed using the Harmony software (Version 6). Fluorescent and brightfield images acquired on the Operetta high content screening microscope were further analyzed using a scoring system to categorize the percentages of live, apoptotic and pyroptotic cells. For 3 fields of view per treatment the number of live cells per field was counted from the merge of the brightfield and ASC-GFP channels. Only cells which contained ASC-GFP throughout the cytoplasm and nucleus were classed as “live”. The number of pyroptotic cells was calculated using the merge of the brightfield and ASC-GFP channels. Only the cells with GFP specks were classed as “pyroptotic”. The number of apoptotic cells was calculated using the merge of the brightfield, ASC-GFP and Annexin V channels. Cells that were stained positive for Annexin V but without a GFP speck were classified as “apoptotic”. Images of ASC-GFP specks were acquired in 3 random fields in 4′,6-diaminidino-2-phenylindole (DAPI, 358 nm/461) and GFP (469 nm/525 nm) channels using the EVOS microscope (FL Auto M5000, #AM F5000) according to the manufacturer's protocol. […]

[2] = system: 3D human organotypic skin; assay: 3D organotypic skin histology and cleaved GSDMD-NT immunostaining; assay type: cell-based; conditions: immunostaining
Description: Organotypic cultures were generated by adapting a previously described protocol (Arnette et al., 2016). Briefly, 2 ml of collagen I (4 mg/ml; Corning, #354249) mixed with 7.5×10^5 human fibroblasts were allowed to polymerize over 1-m1 acellular collagen I in 6-well culture inserts (Falcon, #353102) placed in 6-well deep well plate (Falcon, #355467). After 24 hours, 1×10^6 primary human keratinocytes were seeded into the inserts and kept submerged in a 3:1 DMEM (Hyclone, #SH30243.01) and F12 (Gibco, #31765035) mixture with 10% FBS (Hyclone, #SV30160.03), 100 U/ml penicillin-streptomycin (Gibco, #15140122), 10 μM Y-27632 (Tocris, #1254), 10 ng/ml EGF (Sigma-Aldrich, #E9644), 1×10^−10 M cholera toxin (Enzo, #BML-G117-001), 0.4 μg/ml hydrocortisone (Sigma-Aldrich, #H0888), 0.0243 mg/ml adenine (Sigma-Aldrich, #A2786), 5 μg/ml insulin (Sigma-Aldrich, #12643), 5 μg/ml transferrin (Sigma-Aldrich, #T2036) and 2×10^−9 M 3,3′,5′-triiodo-L-thyronine (Sigma-Aldrich, #T6397). After another 24 hours, the organotypic cultures were then raised at the air-liquid interface and fed with the submerged media (without Y-27632 and EGF) below the insert to induce epidermal differentiation. The air-lifting medium was replaced every 2 days and treatments began 10-14 days after airlifting. Organotypic cultures were then harvested 24 hours after treatment and formalin fixed for 24 hours. Fixed tissues were then embedded into wax for histological purposes.
For immunohistochemistry staining of cleaved N-terminal GSDMD a previously established protocol with modifications was used [Wang et al., Cell 180:941-955.e20 (2020)]. Briefly, 5 μm formalin fixed and paraffin embedded sections were deparaffinized and rehydrated through a series of alcohol. The sections were then rehydrated in an antigen retrieval buffer (Dako, Tris-EDTA, pH 9). Sections were then blocked in goat serum for 20 mins at RT before primary antibody incubated overnight at 4° C. Immunostaining was visualised using DAB substrate and chromogen detection kit (Dako, #K3468). Sections were then counterstained with Myer's Hematoxylin.

N-TERT cells = assay: Secreted IL1β / inflammasome activation in N-TERT cells; assay type: cell-based, human; conditions: ZAKα KO N-TERT cells
Description: To measure secreted cytokine and chemokine levels a human IL1β enzyme linked immunosorbent assay (ELISA) kit (BD, #557953), human IL-18 ELISA kit (MBL, #7620) or an Immune Monitoring 65-Plex Human ProcartaPlex Panel (EPX650-10065-901) were used according to manufacturer's protocols. Further analysis of Luminex or ELISA profiling of samples was performed using heatmap and PCA analysis on Clustervis (biitdotcsdotutdotee/clustvis/) [Somani et al., Proceeding of SSIC (2019)].
as §1

ASC = assay: Phosphorylation of inflammasome adaptor ASC; assay type: cell-based, human; conditions: data not shown
HB-EGF = HB-EGF expression by RNAseq after TNFα priming; assay type: cell-based, human; conditions: FKPM by RNAseq
Description: Library preparation, QC and high-throughput sequencing were provided by Macrogen, Singapore. RNA isolation and library preparation was carried out as previously described [Robinson et al., Science (2020)].

Chain of ZAKα (Q9NYL2 whole entry, the tested form may be a part): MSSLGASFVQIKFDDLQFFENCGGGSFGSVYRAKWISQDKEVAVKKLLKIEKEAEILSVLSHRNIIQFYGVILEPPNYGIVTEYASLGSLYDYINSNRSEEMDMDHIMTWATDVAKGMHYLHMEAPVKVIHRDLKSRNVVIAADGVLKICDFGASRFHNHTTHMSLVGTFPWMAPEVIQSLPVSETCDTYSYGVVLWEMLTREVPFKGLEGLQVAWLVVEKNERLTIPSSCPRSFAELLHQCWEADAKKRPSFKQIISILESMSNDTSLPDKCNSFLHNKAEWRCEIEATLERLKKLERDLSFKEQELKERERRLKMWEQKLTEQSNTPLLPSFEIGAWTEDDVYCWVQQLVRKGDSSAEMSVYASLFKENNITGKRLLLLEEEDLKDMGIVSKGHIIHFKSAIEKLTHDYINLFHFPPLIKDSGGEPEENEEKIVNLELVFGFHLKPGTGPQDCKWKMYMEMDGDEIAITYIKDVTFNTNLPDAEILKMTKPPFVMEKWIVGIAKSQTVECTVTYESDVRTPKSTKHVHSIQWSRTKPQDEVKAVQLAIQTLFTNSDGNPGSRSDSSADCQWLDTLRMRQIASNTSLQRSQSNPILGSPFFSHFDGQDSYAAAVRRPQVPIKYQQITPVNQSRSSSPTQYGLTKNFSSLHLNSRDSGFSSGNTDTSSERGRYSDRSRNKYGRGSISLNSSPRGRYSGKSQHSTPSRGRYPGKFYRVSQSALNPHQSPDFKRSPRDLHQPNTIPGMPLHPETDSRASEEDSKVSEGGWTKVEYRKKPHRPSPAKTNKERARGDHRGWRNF

COc1cc(O)c2c(c1)/C=C/C[C@H](O)[C@H](O)C(=O)/C=C\C[C@H](C)OC2=O [5-Z-7-oxozeanol, 5Z-7-Oxozeaenol]
potency against ZAKα compared with TAK1 (ZAKα): almost the same potency as its reported target TAK1 | effect on ANS-triggered NLRP1 hyperphosphorylation (NLRP1^DR): can effectively block ANS-triggered NLRP1 hyperphosphorylation

C=CC(=O)N1CCCC(c2ccnc(Nc3cc(C(=O)Nc4cc(-n5cnc(C)c5)cc(C(F)(F)F)c4)ccc3C)n2)C1 (stereo not drawn) [M443, 4-methyl-N-[3-(4-methylimidazol-1-yl)-5-(trifluoromethyl)phenyl]-3-[[4-(1-prop-2-enoylpiperidin-3-yl)pyrimidin-2-yl]amino]benzamide]
effect on UVB-induced IL1β / NLRP1 activation (human skin explants): reduction in UVB-induced IL1β; also recorded: effective at blocking UVB induced NLRP1 activation and IL1beta release | effect on ANS-triggered NLRP1 hyperphosphorylation (NLRP1^DR): can effectively block ANS-triggered NLRP1 hyperphosphorylation

COc1ccc(C[C@H](N)C(=O)N[C@H]2[C@@H](O)[C@H](n3cnc4c(N(C)C)ncnc43)O[C@@H]2CO)cc1 [PURO, Puromycin]
chemokine/cytokine profile versus untreated (3D organotypic skin): very few cytokines/chemokines differed | mode of cell death (apoptosis / pyroptosis) [1]: kills cells exclusively via apoptosis

CC(C)[C@H](N)C(=O)N1CCC[C@H]1B(O)O [VbP, Talabostat]
cleaved GSDMD N-terminal fragment at the cell membrane [2]: prominently enriched at the cell membrane | IL1β secretion and pyroptotic death in ZAKα KO cells (N-TERT cells): remained fully sensitive | mode of cell death (apoptosis / pyroptosis) [1]: exclusively triggers pyroptosis | time to induce detectable pyroptosis ([1]; wild-type N-TERT cells, PI positive cells): at least 5 hours | phosphorylation of ASC (ASC): not phosphorylated

TNFα
increased expression of DT entry receptor HB-EGF (HB-EGF): > 5 fold
